# Measurements from patent publication US8598193B2, “Polycyclic agents for the treatment of respiratory syncytial virus infections” (Biota Scientific Management Pty Ltd., priority 2003, dated 2013).
# Tested on: RSV A2
# Assay: RSV antiviral cytopathic effect (CPE) assay, MTT readout
# Format: cell-based
# Conditions: human respiratory syncytial virus, HEp-2, 120 h; RSV A2 in HEp2 cells, CPE assay, MTT, approx. 5 days; read-out: Activity Range (RSV A2 antiviral EC50), compounds of Table 2
# Experimental: Method Q: RSV Antiviral Assay Protocol
# Compounds of the invention were tested for their antiviral activity against respiratory syncytial virus. Cytopathic effect (CPE) assays were performed essentially as described in the literature (see for example Watanabe et al, 1. Virological Methods, 1994, 48, 257). Serial dilutions of the test compounds were made in assay medium. HEp2 cells (1.0×10^4 cells/well) were infected with RSV at a low multiplicity of infection (e.g. RSV A2 at an moi of 0.01) and 100 μL added to cultures assessing antiviral activity and cells without virus added to those assessing compound cytotoxicity. Assays were incubated for approximately 5 days at 37° C. in a 5% CO2 atmosphere. The extent of CPE was determined via metabolism of the vital dye 3-(4,5-dimethylthiaxol-2-yl)-2,5-diphenyltetrazolium bromide (MTT). A 3 mg/ml stock of MTT was made in assay medium and 100 μL added to each well, taking the final MTT concentration to […]. After 2 hours incubation at 37° C., the media-MTT solution was removed and 200 μL of isopropanol was added to dissolve the vital dye crystals. Plates were shaken and the absorbance read at 540 nm. The compound concentrations that inhibited CPE by 50% (EC50) and developed cytotoxicity (CC50) were calculated using an Excel curve fitting program.
row,SMILES,EC50
1,COc1ccc(CC(=O)N2CCN3C(=O)c4ccccc4C23c2ccc(F)cc2)cc1 (stereo not drawn) [Compound 232],0.25 to 1 µg/mL
2,COc1ccc(NC(=O)N2CCN3C(=O)c4ccccc4C23c2ccc(Cl)cc2)cc1 (stereo not drawn) [Compound 85],0.1 to 0.25 µg/mL
3,O=C(c1ccc(F)cc1)N1CCN2C(=O)c3ccccc3C12c1ccc(OCCCCl)cc1 (stereo not drawn) [Compound 261],0.1 to 0.25 µg/mL
4,O=C(c1ccc(F)cc1)N1CCN2C(=O)c3ccccc3C12c1ccc(OCc2ccccc2)cc1 (stereo not drawn) [Compound 262],0.1 to 0.25 µg/mL
5,O=C(Oc1ccc(C23c4ccccc4C(=O)N2CCN3C(=O)c2ccc(F)cc2)cc1)c1ccc(F)cc1 (stereo not drawn) [Compound 237],0.25 to 1 µg/mL
6,O=C(c1ccc(F)cc1)N1CCN2C(=O)c3ccccc3C12c1ccc(OCCCCCl)cc1 (stereo not drawn) [Compound 264],0.25 to 1 µg/mL
7,O=C(c1ccc(F)cc1)N1CCN2C(=O)c3ccccc3C12c1ccc(OCCCl)cc1 (stereo not drawn) [Compound 265],0.1 to 0.25 µg/mL
8,CCC(=O)N1CCN2C(=O)c3ccccc3C12c1ccc(CC)cc1 (stereo not drawn) [Compound 192],0.25 to 1 µg/mL
9,O=C(c1ccsc1)N1CCN2C(=O)c3ccccc3C12c1ccc(Cl)cc1 (stereo not drawn) [Compound 327],0.1 to 0.25 µg/mL
10,COCCOc1ccc(C23c4ccccc4C(=O)N2CCN3C(=O)c2ccc(F)cc2)cc1 (stereo not drawn) [Compound 238],0.1 to 0.25 µg/mL
11,NCCNc1ccc(C(=O)N2CCN3C(=O)c4ccccc4C23c2ccc(Cl)cc2)cn1 (stereo not drawn) [Compound 320],0.25 to 1 µg/mL
12,O=C(c1cscn1)N1CCN2C(=O)c3ccccc3C12c1ccc(Cl)cc1 (stereo not drawn) [Compound 334],0.1 to 0.25 µg/mL
13,CC(C)Oc1ccc(C23c4ccccc4C(=O)N2CCN3C(=O)c2ccc(F)cc2)cc1 (stereo not drawn) [Compound 310],0.25 to 1 µg/mL
14,N#CCCCOc1ccc(C23c4ccccc4C(=O)N2CCN3C(=O)c2ccc(F)cc2)cc1 (stereo not drawn) [Compound 260],0.1 to 0.25 µg/mL
15,N#CCOc1ccc(C23c4ccccc4C(=O)N2CCN3C(=O)c2ccc(F)cc2)cc1 (stereo not drawn) [Compound 239],0.1 to 0.25 µg/mL
16,O=C(c1cccnc1)N1CCN2C(=O)c3ccccc3C12c1ccc(Cl)cc1 (stereo not drawn) [Compound 230],< 0.1 µg/mL
17,Nc1ccc(C(=O)N2CCN3C(=O)c4ccccc4C23c2ccc(Cl)cc2)cn1 (stereo not drawn) [Compound 319],0.25 to 1 µg/mL

row,SMILES,EC50
1,O=C(c1csc(-c2cccnc2)n1)N1CCN2C(=O)c3ccccc3C12c1ccc(Cl)cc1 (stereo not drawn) [Compound 205],< 0.1 µg/mL
2,O=C(c1csc(-c2cccs2)n1)N1CCN2C(=O)c3ccccc3C12c1ccc(Cl)cc1 (stereo not drawn) [Compound 324],0.1 to 0.25 µg/mL
3,CCOc1ccsc1C(=O)N1CCN2C(=O)c3ccccc3C21c1ccc(Cl)cc1 (stereo not drawn) [Compound 329],0.1 to 0.25 µg/mL
4,CCOc1ccc(C23c4ccccc4C(=O)N2CCN3C(=O)c2ccc(F)cc2)cc1 (stereo not drawn) [Compound 308],0.1 to 0.25 µg/mL
5,CCc1ccc(C23c4ccccc4C(=O)N2CCN3C(=O)c2ccc(F)cc2)cc1 (stereo not drawn) [Compound 191],< 0.1 µg/mL
6,CCC(=O)N1CCN2C(=O)c3ccccc3C12c1ccc(C(F)(F)F)cc1 (stereo not drawn) [Compound 305],0.25 to 1 µg/mL
7,O=C1c2ccccc2C2(c3ccc(Cl)cc3)N1CCN2C(=O)c1nsc(Cl)c1Cl (stereo not drawn) [Compound 331],0.25 to 1 µg/mL
8,O=C1c2ccccc2C2(c3ccc(Cl)cc3)N1CCN2C(=O)c1cccc2c1OCCO2 (stereo not drawn) [Compound 245],0.25 to 1 µg/mL
9,O=C(c1ccc(F)nc1)N1CCN2C(=O)c3ccccc3C12c1ccc(OCC2CC2)cc1 (stereo not drawn) [Compound 316],< 0.1 µg/mL
10,O=C(c1ccc(F)cc1)N1CCN2C(=O)c3ccccc3C12c1ccc(Br)cc1 (stereo not drawn) [Compound 234],< 0.1 µg/mL
11,O=C(c1ccoc1)N1CCN2C(=O)c3ccccc3C12c1ccc(Cl)cc1 (stereo not drawn) [Compound 326],0.1 to 0.25 µg/mL
12,O=C(CSc1ncccn1)N1CCN2C(=O)c3ccccc3C12c1ccc(Cl)cc1 (stereo not drawn) [Compound 303],0.25 to 1 µg/mL
13,Cc1ccc(C23c4ccccc4C(=O)N2CCN3C(=O)NCc2ccc(F)cc2)cc1 (stereo not drawn) [Compound 88],< 0.1 µg/mL
14,O=C(CCCc1c[nH]c2ccccc12)N1CCN2C(=O)c3ccccc3C12c1ccc(Cl)cc1 (stereo not drawn) [Compound 228],0.25 to 1 µg/mL
15,CCCc1ccc(C23c4ccccc4C(=O)N2CCN3C(=O)Cc2ccc(OC)cc2)cc1 (stereo not drawn) [Compound 201],0.25 to 1 µg/mL
16,CC(C)c1ccc(C23c4ccccc4C(=O)N2CCN3C(=O)c2ccc(F)cc2)cc1 (stereo not drawn) [Compound 203],0.25 to 1 µg/mL
17,CC(=O)COc1ccc(C23c4ccccc4C(=O)N2CCN3C(=O)c2ccc(F)cc2)cc1 (stereo not drawn) [Compound 268],0.25 to 1 µg/mL

# Same assay, conditions: human respiratory syncytial virus, HEp-2, 120 h; RSV A2 in HEp2 cells, CPE assay, MTT, approx. 5 days; read-out: Activity Range (RSV A2 antiviral EC50), compounds of Table 3
row,SMILES,EC50
1,O=C(c1ccc(F)nc1)N1CCN2C(=O)c3cccnc3C12c1ccc(Cl)cc1 (stereo not drawn) [Compound 369],0.1 to 0.25 µg/mL
2,COc1c(C(=O)N2CCN3C(=O)c4ccncc4C32c2ccc(Cl)cc2)csc1Cl (stereo not drawn) [Compound 436],0.1 to 0.25 µg/mL
3,COc1ccc(-c2ocnc2C(=O)N2CCN3C(=O)c4ccncc4C32c2ccc(Cl)cc2)cc1 (stereo not drawn) [Compound 462],< 0.1 µg/mL
4,Cc1noc(C)c1C(=O)N1CCN2C(=O)c3ccncc3C21c1ccc(Cl)cc1 (stereo not drawn) [Compound 392],0.1 to 0.25 µg/mL
5,Cc1nc(-c2ccccc2)sc1C(=O)N1CCN2C(=O)c3ccncc3C21c1ccc(Cl)cc1 (stereo not drawn) [Compound 468],0.25 to 1 µg/mL
6,O=C(c1ccccn1)N1CCN2C(=O)c3ccncc3C12c1ccc(Cl)cc1 (stereo not drawn) [Compound 455],0.25 to 1 µg/mL
7,Cc1cc(C(=O)N2CCN3C(=O)c4ccncc4C32c2ccc(Cl)cc2)c(C(F)(F)F)o1 (stereo not drawn) [Compound 385],< 0.1 µg/mL
8,O=C(c1cncnc1)N1CCN2C(=O)c3ccncc3C12c1ccc(Cl)cc1 (stereo not drawn) [Compound 481],0.25 to 1 µg/mL
9,Cc1cc(C(=O)N2CCN3C(=O)c4ccncc4C32c2ccc(Cl)cc2)n(C)n1 (stereo not drawn) [Compound 420],0.25 to 1 µg/mL
10,O=C1c2ccncc2C2(c3ccc(Cl)cc3)N1CCN2C(=O)c1csc2ccccc12 (stereo not drawn) [Compound 379],0.1 to 0.25 µg/mL
11,Cc1csc(C(=O)N2CCN3C(=O)c4ccncc4C32c2ccc(Cl)cc2)c1Cl (stereo not drawn) [Compound 450],0.1 to 0.25 µg/mL
12,O=C1c2ccncc2C2(c3ccc(Cl)cc3)N1CCN2C(=O)c1cccnc1Oc1ccc(Cl)cc1 (stereo not drawn) [Compound 395],0.25 to 1 µg/mL
13,O=C(c1ccc(Br)s1)N1CCN2C(=O)c3ccncc3C12c1ccc(Cl)cc1 (stereo not drawn) [Compound 437],0.25 to 1 µg/mL
14,O=C(c1ccc(F)nc1)N1CCN2C(=O)c3ncccc3C12c1ccc(Cl)cc1 (stereo not drawn) [Compound 370],0.25 to 1 µg/mL
15,Cc1oc(-c2ccccc2)cc1C(=O)N1CCN2C(=O)c3ccncc3C21c1ccc(Cl)cc1 (stereo not drawn) [Compound 394],0.25 to 1 µg/mL
16,O=C(c1csc(-c2ccncc2)n1)N1CCN2C(=O)c3ccncc3C12c1ccc(Cl)cc1 (stereo not drawn) [Compound 457],0.25 to 1 µg/mL
17,CC(C)c1sc(Cl)nc1C(=O)N1CCN2C(=O)c3ccncc3C21c1ccc(Cl)cc1 (stereo not drawn) [Compound 474],0.1 to 0.25 µg/mL
18,O=C(c1csnn1)N1CCN2C(=O)c3ccncc3C12c1ccc(Cl)cc1 (stereo not drawn) [Compound 456],< 0.1 µg/mL
19,O=C1c2ccncc2C2(c3ccc(Cl)cc3)N1CCN2C(=O)c1cccnc1Oc1ccccc1 (stereo not drawn) [Compound 404],0.25 to 1 µg/mL

row,SMILES,EC50
1,O=C(c1ccc(F)nc1)N1CCN2C(=O)c3cc[n+]([O-])cc3C12c1ccc(Cl)cc1 (stereo not drawn) [Compound 480],< 0.1 µg/mL
2,Cc1nnsc1C(=O)N1CCN2C(=O)c3ccncc3C21c1ccc(Cl)cc1 (stereo not drawn) [Compound 386],0.1 to 0.25 µg/mL
3,Cc1cc(C(=O)N2CCN3C(=O)c4ccncc4C23c2ccc(Cl)cc2)oc1C (stereo not drawn) [Compound 415],0.25 to 1 µg/mL
4,CCSc1ncccc1C(=O)N1CCN2C(=O)c3ccncc3C21c1ccc(Cl)cc1 (stereo not drawn) [Compound 397],0.1 to 0.25 µg/mL
5,O=C(c1cncc(Br)c1)N1CCN2C(=O)c3ccncc3C12c1ccc(Cl)cc1 (stereo not drawn) [Compound 405],0.1 to 0.25 µg/mL
6,O=C(c1ccno1)N1CCN2C(=O)c3ccncc3C12c1ccc(Cl)cc1 (stereo not drawn) [Compound 448],0.1 to 0.25 µg/mL
7,CSc1ncc(Cl)c(C(=O)N2CCN3C(=O)c4ccncc4C32c2ccc(Cl)cc2)n1 (stereo not drawn) [Compound 454],0.1 to 0.25 µg/mL
8,Cc1cc(C(=O)N2CCN3C(=O)c4ccncc4C23c2ccc(Cl)cc2)no1 (stereo not drawn) [Compound 382],0.25 to 1 µg/mL
9,O=C(c1cncc(-c2cccs2)c1)N1CCN2C(=O)c3ccncc3C12c1ccc(Cl)cc1 (stereo not drawn) [Compound 409],0.1 to 0.25 µg/mL
10,Cc1cc(C(=O)N2CCN3C(=O)c4ccncc4C32c2ccc(Cl)cc2)c(C)o1 (stereo not drawn) [Compound 412],< 0.1 µg/mL
11,CSc1ncccc1C(=O)N1CCN2C(=O)c3ccncc3C21c1ccc(Cl)cc1 (stereo not drawn) [Compound 398],0.1 to 0.25 µg/mL
12,O=C(c1ccc(F)cc1)N1CCN2C(=O)c3ccncc3C12c1ccc(Br)cc1 (stereo not drawn) [Compound 358],0.1 to 0.25 µg/mL
13,O=C1c2ccncc2C2(c3ccc(Cl)cc3)N1CCN2C(=O)c1nsc(Cl)c1Cl (stereo not drawn) [Compound 461],< 0.1 µg/mL
14,CCc1ccc(C23c4c[n+]([O-])ccc4C(=O)N2CCN3C(=O)c2ccc(F)cc2)cc1 (stereo not drawn) [Compound 372],0.25 to 1 µg/mL
15,O=C(c1ccc(F)cc1)N1CCN2C(=O)c3ccncc3C12c1ccccc1Cl (stereo not drawn) [Compound 344],0.25 to 1 µg/mL
16,O=C(c1ccc(F)cc1)N1CCN2C(=O)c3cccnc3C12c1ccc(Cl)cc1 (stereo not drawn) [Compound 360],0.25 to 1 µg/mL
17,O=C(c1csc(-c2cccnc2)n1)N1CCN2C(=O)c3ccncc3C12c1ccc(Cl)cc1 (stereo not drawn) [Compound 381],< 0.1 µg/mL
18,O=C1c2ccncc2C2(c3ccc(Cl)cc3)N1CCN2C(=O)c1ccnn1-c1ccccc1 (stereo not drawn) [Compound 423],0.25 to 1 µg/mL
19,COc1ccc(-c2cc(C(=O)N3CCN4C(=O)c5ccncc5C34c3ccc(Cl)cc3)on2)cc1 (stereo not drawn) [Compound 465],0.25 to 1 µg/mL
